From ChEMBL document CHEMBL5055685, “Discovery of the First Potent IDO1/IDO2 Dual Inhibitors: A Promising Strategy for Cancer Immunotherapy” (J Med Chem, 2021)
pIC50: −log10 of the molar value. Active and inactive are the calls of the source. No cut-off for these calls is given here.

What was measured:
[1] = molecular target: CDK3/Cyclin E (Homo sapiens) (UniProt P24864+Q00526); assay: Inhibition of CDK3/cyclin-E (unknown origin) at 1 uM; format: protein-complex assay
[2] = molecular target: TRAF2 and NCK-interacting protein kinase (Homo sapiens) (UniProt Q9UKE5); assay: Inhibition of TNIK (unknown origin) at 1 uM
[3] = molecular target: MAP kinase-activated protein kinase 3 (Homo sapiens) (UniProt Q16644); assay: Inhibition of MAPKAPK3 (unknown origin) at 1 uM
[4] = molecular target: Leukocyte tyrosine kinase receptor (Homo sapiens) (UniProt P29376); assay: Inhibition of TYK1 (unknown origin) at 1 uM
[5] = molecular target: Tyrosine-protein kinase Tec (Homo sapiens) (UniProt P42680); assay: Inhibition of TEC (unknown origin) at 1 uM
Chain of Tyrosine-protein kinase Tec (Homo sapiens) (P42680 whole entry): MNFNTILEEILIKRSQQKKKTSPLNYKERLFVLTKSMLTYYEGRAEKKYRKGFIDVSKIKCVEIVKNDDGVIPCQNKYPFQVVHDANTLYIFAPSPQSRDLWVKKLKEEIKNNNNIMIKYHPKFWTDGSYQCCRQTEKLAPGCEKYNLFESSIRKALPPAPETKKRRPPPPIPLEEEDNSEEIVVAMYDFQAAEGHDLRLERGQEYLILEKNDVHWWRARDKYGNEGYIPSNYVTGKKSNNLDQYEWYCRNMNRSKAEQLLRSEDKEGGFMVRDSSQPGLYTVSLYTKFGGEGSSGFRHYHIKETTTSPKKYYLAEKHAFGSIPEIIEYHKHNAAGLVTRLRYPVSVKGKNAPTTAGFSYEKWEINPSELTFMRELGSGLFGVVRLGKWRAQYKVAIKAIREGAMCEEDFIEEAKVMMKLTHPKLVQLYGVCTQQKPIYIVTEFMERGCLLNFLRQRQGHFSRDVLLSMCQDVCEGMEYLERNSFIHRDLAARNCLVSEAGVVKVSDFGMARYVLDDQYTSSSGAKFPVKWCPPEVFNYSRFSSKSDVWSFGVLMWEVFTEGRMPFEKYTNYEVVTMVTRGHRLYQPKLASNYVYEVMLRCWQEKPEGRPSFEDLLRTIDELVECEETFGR

[6] = molecular target: Testis-specific serine/threonine-protein kinase 1 (Homo sapiens) (UniProt Q9BXA7); assay: Inhibition of STK22D (unknown origin) at 1 uM
[7] = Protein binding in monkey plasma assessed as fraction unbound by equilibrium dialysis; format: ADME, cell-free, Macaca mulatta; settings: rhesus monkey
[8] = molecular target: Tyrosine-protein kinase Lyn (Homo sapiens) (UniProt P07948); assay: Inhibition of LYN-B (unknown origin) at 1 uM
[9] = molecular target: Testis-specific serine/threonine-protein kinase 2 (Homo sapiens) (UniProt Q96PF2); assay: Inhibition of TSSK2 (unknown origin) at 1 uM
Chain of Testis-specific serine/threonine-protein kinase 2 (Homo sapiens) (Q96PF2 whole entry): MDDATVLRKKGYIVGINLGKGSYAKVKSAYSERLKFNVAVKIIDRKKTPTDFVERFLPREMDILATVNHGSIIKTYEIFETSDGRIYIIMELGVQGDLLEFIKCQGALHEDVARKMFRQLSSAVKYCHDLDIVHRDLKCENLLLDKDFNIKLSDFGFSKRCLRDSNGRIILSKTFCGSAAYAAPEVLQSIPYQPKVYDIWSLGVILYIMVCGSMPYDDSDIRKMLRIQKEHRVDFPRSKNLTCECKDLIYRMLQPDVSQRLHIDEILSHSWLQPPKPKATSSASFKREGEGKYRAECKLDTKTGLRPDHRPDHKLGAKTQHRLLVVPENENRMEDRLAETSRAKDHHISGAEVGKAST

[10] = molecular target: Mitogen-activated protein kinase kinase kinase 12 (Homo sapiens) (UniProt Q12852); assay: Inhibition of DLK (unknown origin) at 1 uM
Chain of Mitogen-activated protein kinase kinase kinase 12 (Homo sapiens) (Q12852 whole entry): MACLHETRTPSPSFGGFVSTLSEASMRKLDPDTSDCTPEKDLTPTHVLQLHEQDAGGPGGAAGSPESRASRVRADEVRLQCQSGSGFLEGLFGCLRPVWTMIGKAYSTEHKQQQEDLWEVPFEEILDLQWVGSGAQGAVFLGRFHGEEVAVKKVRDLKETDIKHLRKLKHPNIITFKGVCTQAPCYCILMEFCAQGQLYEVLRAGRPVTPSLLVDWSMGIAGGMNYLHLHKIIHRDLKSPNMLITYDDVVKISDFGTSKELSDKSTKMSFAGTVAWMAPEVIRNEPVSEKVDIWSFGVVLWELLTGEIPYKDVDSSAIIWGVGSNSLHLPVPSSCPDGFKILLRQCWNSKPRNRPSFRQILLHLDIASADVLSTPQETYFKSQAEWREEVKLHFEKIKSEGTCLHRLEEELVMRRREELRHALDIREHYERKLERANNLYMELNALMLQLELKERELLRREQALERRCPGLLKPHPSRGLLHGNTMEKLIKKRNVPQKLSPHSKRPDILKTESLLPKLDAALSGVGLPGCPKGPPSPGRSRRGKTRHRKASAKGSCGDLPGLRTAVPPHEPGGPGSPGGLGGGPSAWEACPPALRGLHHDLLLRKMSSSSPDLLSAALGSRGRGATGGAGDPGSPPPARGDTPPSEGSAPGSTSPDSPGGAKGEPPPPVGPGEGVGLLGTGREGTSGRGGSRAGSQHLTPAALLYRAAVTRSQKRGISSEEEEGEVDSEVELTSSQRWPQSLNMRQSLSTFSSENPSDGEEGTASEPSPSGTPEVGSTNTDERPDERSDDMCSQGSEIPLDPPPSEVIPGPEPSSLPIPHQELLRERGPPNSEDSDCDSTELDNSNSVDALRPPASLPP

[11] = molecular target: MAP kinase-activated protein kinase 2 (Homo sapiens) (UniProt P49137); assay: Inhibition of MAPKAPK2 (unknown origin) at 1 uM
[12] = molecular target: Mitogen-activated protein kinase 15 (Homo sapiens) (UniProt Q8TD08); assay: Inhibition of ERK7 (unknown origin) at 1 uM
[13] = Clearance in Sprague-Dawley rat at 5 mg/kg, iv; format: ADME, organism-based; settings: in vivo
[14] = molecular target: Interleukin-1 receptor-associated kinase 4 (Homo sapiens) (UniProt Q9NWZ3); assay: Inhibition of IRAK4 (unknown origin) at 1 uM
[15] = molecular target: Serine/threonine-protein kinase Nek9 (Homo sapiens) (UniProt Q8TD19); assay: Inhibition of NEK9 (unknown origin) at 1 uM
[16] = molecular target: Serine/threonine-protein kinase OSR1 (Homo sapiens) (UniProt O95747); assay: Inhibition of OSR1 (unknown origin) at 1 uM
[17] = molecular target: Death-associated protein kinase 1 (Homo sapiens) (UniProt P53355); assay: Inhibition of DAPK1 (unknown origin) at 1 uM
[18] = Half life in Sprague-Dawley rat at 50 mg/kg, po; format: ADME, organism-based; settings: in vivo
[19] = molecular target: Aurora kinase C (Homo sapiens) (UniProt Q9UQB9); assay: Inhibition of Aurora C (unknown origin) at 1 uM
[20] = molecular target: Inhibitor of nuclear factor kappa-B kinase subunit epsilon (Homo sapiens) (UniProt Q14164); assay: Inhibition of IKKepsilon (unknown origin) at 1 uM
[21] = molecular target: Ribosomal protein S6 kinase alpha-4 (Homo sapiens) (UniProt O75676); assay: Inhibition of MSK2 (unknown origin) at 1 uM
HCT-116 = assay: Antitumor immunity in BALB/c mouse xenografted with human HCT-116 cells assessed as increase in CD80 expression in CD11c+ cells by propidium iodide staining based flow cytometry analysis (reference value: 79.8 %); format: functional
[22] = Protein binding in human plasma assessed as fraction unbound by equilibrium dialysis; format: ADME, cell-free
Mus musculus = assay: Toxicity in BALB/c mouse implanted with mouse CT26 cells assessed as weight loss at 50 mg/kg, ip bid for 28 days; format: organism-based; settings: in vivo, 672 h, time 28 day
[23] = molecular target: Ephrin type-B receptor 1 (Homo sapiens) (UniProt P54762); assay: Inhibition of EPHB1 (unknown origin) at 1 uM
Chain of Ephrin type-B receptor 1 (Homo sapiens) (P54762 whole entry): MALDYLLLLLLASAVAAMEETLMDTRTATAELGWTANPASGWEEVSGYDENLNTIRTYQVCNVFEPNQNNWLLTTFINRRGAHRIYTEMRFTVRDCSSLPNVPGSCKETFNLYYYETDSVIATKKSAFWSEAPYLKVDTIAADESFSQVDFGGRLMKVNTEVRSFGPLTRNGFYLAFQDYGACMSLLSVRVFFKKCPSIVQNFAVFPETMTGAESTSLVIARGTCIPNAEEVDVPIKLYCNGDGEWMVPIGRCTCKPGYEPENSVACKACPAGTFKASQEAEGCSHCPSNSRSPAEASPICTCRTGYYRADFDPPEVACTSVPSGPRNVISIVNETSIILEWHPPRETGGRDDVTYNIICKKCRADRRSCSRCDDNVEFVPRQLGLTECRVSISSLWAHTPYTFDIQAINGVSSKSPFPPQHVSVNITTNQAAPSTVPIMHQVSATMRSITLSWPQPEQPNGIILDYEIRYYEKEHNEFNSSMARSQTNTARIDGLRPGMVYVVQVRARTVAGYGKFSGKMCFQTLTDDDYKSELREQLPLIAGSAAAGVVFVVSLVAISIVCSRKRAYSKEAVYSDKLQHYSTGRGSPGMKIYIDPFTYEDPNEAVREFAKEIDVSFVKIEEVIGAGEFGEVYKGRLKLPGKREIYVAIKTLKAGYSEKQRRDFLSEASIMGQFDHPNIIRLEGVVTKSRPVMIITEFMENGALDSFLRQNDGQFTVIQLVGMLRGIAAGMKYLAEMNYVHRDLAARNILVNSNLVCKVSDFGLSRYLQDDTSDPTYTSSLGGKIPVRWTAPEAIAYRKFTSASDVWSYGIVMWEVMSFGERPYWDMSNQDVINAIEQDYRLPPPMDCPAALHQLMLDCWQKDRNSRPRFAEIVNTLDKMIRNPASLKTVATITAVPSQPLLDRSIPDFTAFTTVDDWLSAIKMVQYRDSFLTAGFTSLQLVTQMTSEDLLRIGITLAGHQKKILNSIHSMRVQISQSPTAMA

[24] = molecular target: Serine/threonine-protein kinase A-Raf (Homo sapiens) (UniProt P10398); assay: Inhibition of ARAF (unknown origin) at 1 uM
[25] = molecular target: Cyclin-dependent kinase 14/Cyclin-Y (Homo sapiens) (UniProt O94921+Q8ND76); assay: Inhibition of CDK14/cyclin-Y (unknown origin) at 1 uM; format: protein-complex assay
[26] = molecular target: Dual specificity protein kinase CLK3 (Homo sapiens) (UniProt P49761); assay: Inhibition of CLK3 (unknown origin) at 1 uM
[27] = molecular target: Dual specificity mitogen-activated protein kinase kinase 5 (Homo sapiens) (UniProt Q13163); assay: Inhibition of MEK5 (unknown origin) at 1 uM
Chain of Dual specificity mitogen-activated protein kinase kinase 5 (Homo sapiens) (Q13163 whole entry): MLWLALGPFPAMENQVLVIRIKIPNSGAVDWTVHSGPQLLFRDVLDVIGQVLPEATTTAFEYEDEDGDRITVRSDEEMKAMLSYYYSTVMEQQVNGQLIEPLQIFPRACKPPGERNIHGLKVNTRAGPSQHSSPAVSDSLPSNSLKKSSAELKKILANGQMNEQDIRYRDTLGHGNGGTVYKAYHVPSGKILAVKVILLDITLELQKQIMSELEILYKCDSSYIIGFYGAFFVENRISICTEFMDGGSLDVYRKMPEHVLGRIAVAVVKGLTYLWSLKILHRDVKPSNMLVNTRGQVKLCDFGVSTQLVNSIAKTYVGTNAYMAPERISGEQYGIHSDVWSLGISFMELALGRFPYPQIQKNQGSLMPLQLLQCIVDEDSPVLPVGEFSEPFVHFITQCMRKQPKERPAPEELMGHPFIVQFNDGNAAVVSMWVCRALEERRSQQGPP

[28] = molecular target: CDC7/DBF4 (Cell division cycle 7-related protein kinase/Activator of S phase kinase) (Homo sapiens) (UniProt Q9UBU7+O00311); assay: Inhibition of CDC7/DBF4 (unknown origin) at 1 uM; format: protein-complex assay
[29] = molecular target: Calcium/calmodulin-dependent protein kinase kinase 2 (Homo sapiens) (UniProt Q96RR4); assay: Inhibition of CAMKK2 (unknown origin) at 1 uM
[30] = molecular target: Inactive tyrosine-protein kinase PEAK1 (Homo sapiens) (UniProt Q9H792); assay: Inhibition of PEAK1 (unknown origin) at 1 uM
Rattus norvegicus [31] = assay: Toxicity in rat assessed as weight loss at […]; format: organism-based; settings: in vivo
[32] = molecular target: Protein kinase C beta type (Homo sapiens) (UniProt P05771); assay: Inhibition of PKCb1 (unknown origin) at 1 uM
[33] = molecular target: Receptor-interacting serine/threonine-protein kinase 2 (Homo sapiens) (UniProt O43353); assay: Inhibition of RIPK2 (unknown origin) at 1 uM
[34] = molecular target: Mitogen-activated protein kinase kinase kinase 10 (Homo sapiens) (UniProt Q02779); assay: Inhibition of MLK2 (unknown origin) at 1 uM
[35] = molecular target: Ephrin type-A receptor 5 (Homo sapiens) (UniProt P54756); assay: Inhibition of EPHA5 (unknown origin) at 1 uM
Rattus norvegicus [36] = assay: Toxicity in rat assessed as rat death at […]; format: organism-based; settings: in vivo
[37] = molecular target: Vascular endothelial growth factor receptor 3 (Homo sapiens) (UniProt P35916); assay: Inhibition of FLT4 (unknown origin) at 1 uM
[38] = molecular target: Serine/threonine-protein kinase pim-3 (Homo sapiens) (UniProt Q86V86); assay: Inhibition of PIM3 (unknown origin) at 1 uM
[39] = molecular target: Serine/threonine-protein kinase/endoribonuclease IRE2 (Homo sapiens) (UniProt Q76MJ5); assay: Inhibition of ERN2 (unknown origin) at 1 uM
Chain of Serine/threonine-protein kinase/endoribonuclease IRE2 (Homo sapiens) (Q76MJ5 35-926 limits assumed): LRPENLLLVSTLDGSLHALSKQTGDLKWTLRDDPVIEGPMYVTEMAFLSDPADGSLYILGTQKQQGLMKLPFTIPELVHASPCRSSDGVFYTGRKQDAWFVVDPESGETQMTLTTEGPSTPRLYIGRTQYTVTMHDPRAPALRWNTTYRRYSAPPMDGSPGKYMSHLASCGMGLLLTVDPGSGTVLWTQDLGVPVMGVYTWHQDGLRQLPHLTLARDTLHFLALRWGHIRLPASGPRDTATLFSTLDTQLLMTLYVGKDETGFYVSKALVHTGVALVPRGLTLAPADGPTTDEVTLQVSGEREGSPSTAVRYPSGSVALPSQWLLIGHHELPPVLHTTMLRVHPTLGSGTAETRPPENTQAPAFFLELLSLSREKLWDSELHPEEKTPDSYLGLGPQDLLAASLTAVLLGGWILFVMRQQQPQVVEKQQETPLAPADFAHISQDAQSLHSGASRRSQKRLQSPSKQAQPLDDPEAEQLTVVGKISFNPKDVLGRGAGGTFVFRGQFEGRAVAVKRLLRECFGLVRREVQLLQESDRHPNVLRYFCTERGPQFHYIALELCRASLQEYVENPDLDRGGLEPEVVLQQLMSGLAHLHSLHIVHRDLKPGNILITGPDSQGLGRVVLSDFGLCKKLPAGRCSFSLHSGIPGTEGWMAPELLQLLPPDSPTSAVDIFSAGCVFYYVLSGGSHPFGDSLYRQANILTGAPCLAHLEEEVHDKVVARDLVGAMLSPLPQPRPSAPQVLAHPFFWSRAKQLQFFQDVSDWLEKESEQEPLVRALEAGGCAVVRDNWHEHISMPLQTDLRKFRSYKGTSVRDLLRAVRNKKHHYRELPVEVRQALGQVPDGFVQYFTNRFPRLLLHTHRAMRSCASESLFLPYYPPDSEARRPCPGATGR

[40] = molecular target: Dual specificity tyrosine-phosphorylation-regulated kinase 1B (Homo sapiens) (UniProt Q9Y463); assay: Inhibition of DYRK1B (unknown origin) at 1 uM
[41] = molecular target: Serine/threonine-protein kinase TAO2 (Homo sapiens) (UniProt Q9UL54); assay: Inhibition of TAOK2 (unknown origin) at 1 uM
[42] = molecular target: Indoleamine 2,3-dioxygenase 1 (Homo sapiens, UniProt P14902); assay: Inhibition of IDO1 in IFNgamma-stimulated human HeLa cells assessed as reduction in kynurenine formation measured after 48 hrs by spectrophotometry

Chain of CDK3/Cyclin E (Homo sapiens) (P24864 whole entry, looked up): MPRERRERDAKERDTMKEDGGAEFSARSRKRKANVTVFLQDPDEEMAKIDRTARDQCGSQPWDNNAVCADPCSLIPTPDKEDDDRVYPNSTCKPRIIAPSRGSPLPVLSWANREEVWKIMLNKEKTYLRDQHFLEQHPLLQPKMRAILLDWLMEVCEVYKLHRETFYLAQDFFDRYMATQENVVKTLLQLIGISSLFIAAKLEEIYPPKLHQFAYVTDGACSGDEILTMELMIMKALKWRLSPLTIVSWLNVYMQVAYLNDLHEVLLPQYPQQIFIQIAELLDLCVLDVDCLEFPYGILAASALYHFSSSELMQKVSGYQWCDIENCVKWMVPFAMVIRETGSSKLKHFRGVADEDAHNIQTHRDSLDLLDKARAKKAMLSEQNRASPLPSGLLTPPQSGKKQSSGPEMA
Chain of CDK3/Cyclin E (Homo sapiens) (Q00526 whole entry, looked up): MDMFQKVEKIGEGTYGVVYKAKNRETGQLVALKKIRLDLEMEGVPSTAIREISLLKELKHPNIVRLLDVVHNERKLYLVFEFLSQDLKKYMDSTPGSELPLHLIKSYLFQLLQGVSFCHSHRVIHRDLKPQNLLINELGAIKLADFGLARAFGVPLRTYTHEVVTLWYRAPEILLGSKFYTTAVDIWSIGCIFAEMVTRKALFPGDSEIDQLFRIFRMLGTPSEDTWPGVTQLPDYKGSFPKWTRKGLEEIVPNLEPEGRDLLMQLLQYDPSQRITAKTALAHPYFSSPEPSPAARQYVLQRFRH

## OCCOCc1cn(CCNc2nonc2/C(=N/O)Nc2ccc(F)c(Br)c2)nn1
[1]
  inhibition: inactive
[2]
  inhibition: inactive
[3]
  inhibition: inactive
[4]
  inhibition: inactive
[5]
  inhibition: inactive
[6]
  inhibition: inactive
[7]
  fraction unbound: 0.0763
[8]
  inhibition: inactive
[9]
  inhibition: inactive
[10]
  inhibition: inactive
[11]
  inhibition: inactive
[12]
  inhibition: inactive
[13]
  clearance: 27.5 mL/min/kg
[14]
  inhibition: inactive
[15]
  inhibition: inactive
[16]
  inhibition: inactive
[17]
  inhibition: inactive
[18]
  half-life: 1.9 h
[19]
  inhibition: inactive
[20]
  inhibition: inactive
[21]
  inhibition: inactive
HCT-116
  Activity: 75.8%
[22]
  fraction unbound: 0.0411
Mus musculus
  Activity: Non-Toxic
[23]
  inhibition: inactive
[24]
  inhibition: inactive
[25]
  inhibition: inactive
[26]
  inhibition: inactive
[27]
  inhibition: inactive
[28]
  inhibition: inactive
[29]
  inhibition: inactive
[30]
  inhibition: inactive
Rattus norvegicus [31]
  Activity: Non-Toxic
[32]
  inhibition: inactive
[33]
  inhibition: inactive
[34]
  inhibition: inactive
[35]
  inhibition: inactive
Rattus norvegicus [36]
  Activity: Non-Toxic
[37]
  inhibition: inactive
[38]
  inhibition: inactive
[39]
  inhibition: inactive
[40]
  inhibition: inactive
[41]
  inhibition: inactive
[42]
  pIC50: 8.67
